{"source": "patent US20080051382A1", "about": "“Crystalline Forms of 3-Beta-Amino 17-Methylene Androstane-6-Alpha 7-Beta-Diol Hydrochloride” (INFLAZYME PHARMACEUTICALS LTD., priority 2003, published 2008)", "type_in_all_cases": "physicochemical", "key": {"[1]": {"test": "Stability of the crystalline form versus relative humidity"}, "[2]": {"test": "Hygroscopicity of the solid form"}, "[3]": {"test": "Thermal stability of the crystalline form on heating"}}, "note": "Where a name gives a salt, the structure may show the parent alone.", "data": [{"compound": "C=C1CCC2C3C(CC[C@]12C)[C@@]1(C)CC[C@H](N)CC1[C@@H](O)[C@@H]3O.Cl", "note": "(stereo partly drawn) [form B, 3-beta-amino-17-methylene-androstane-6-alpha,7-beta-diol hydrochloride]", "values": [{"measurement": "relative humidity range in which the crystalline form is stable", "setting": "[1]; crystalline powder, hydrochloride", "result": "above 50 % RH"}]}, {"compound": "C=C1CCC2C3C(CC[C@]12C)[C@@]1(C)CC[C@H](N)CC1[C@@H](O)[C@@H]3O.Cl", "note": "(stereo partly drawn) [form A, 3-beta-amino-17-methylene-androstane-6-alpha,7-beta-diol hydrochloride]", "values": [{"measurement": "hygroscopicity", "setting": "[2]", "result": "absence of hygroscopicity"}, {"measurement": "form conversion under high relative humidity", "setting": "[1]; left for 3 days under a relative humidity above 95%", "result": "converts to form B"}, {"measurement": "temperature above which the form decomposes completely", "setting": "[3]", "result": "above 280 °C"}, {"measurement": "temperature at which the form begins to deteriorate chemically", "setting": "[3]", "result": "around 240 °C"}]}, {"compound": "C=C1CC[C@H]2[C@@H]3[C@@H](O)[C@H](O)C4C[C@@H](N)CC[C@]4(C)[C@H]3CC[C@]12C", "note": "(stereo partly drawn) [acetate salt, 3-beta-amino-17-methylene-androstane-6-alpha,7-beta-diol, reference compound]", "values": [{"measurement": "hygroscopicity", "setting": "[2]", "result": "hygroscopic"}]}, {"compound": "C=C1CCC2C3C(CC[C@]12C)[C@@]1(C)CC[C@H](N)CC1[C@@H](O)[C@@H]3O.Cl", "note": "(stereo partly drawn) [form C, 3-beta-amino-17-methylene-androstane-6-alpha,7-beta-diol hydrochloride]", "values": [{"measurement": "temperature above which the form turns into anhydride D by heating", "setting": "[3]; conversion of mono-hydrate to anhydrous form D", "result": "above 60 °C"}]}]}
